According to paper PMC4490784, “Compensatory induction of MYC expression by sustained CDK9 inhibition via a BRD4-dependent mechanism” (eLife, 2015):

Legend:
Assay in all cases: KINOMEscan binding assay
[1] = target: T1, ABL1(Y253F)-non phosphorylated (Homo sapiens, UniProt P00519, Y253F); details: read-out: % Retention on Solid Support
T1 construct: purchased DiscoveRx KINOMEscan
Experimental: (§1) As there are no commercial or in-house kinase assays available for CDK3, CDK5, CDK11 and CDK13, the inhibitory abilities of i-CDK9 toward these CDKs were thus evaluated in the DiscoveRx KINOMEscan assay, which is based on a proprietary active site-directed competition-binding platform ([Fabian et al., 2005]).
(§2) The inhibitory activity of i-CDK9 for CDK1-CycB (Upstate/Millipore), CDK2-CycA (Invitrogen), CDK4-CycD1 (Novartis), CDK7-CycH-MAT1 (Invitrogen), and CDK9-CycT1 (Invitrogen) was assessed in the AlphaScreen (PerkinElmer, Inc)-based kinase assay developed at Novartis. Briefly, each CDK–cyclin pair was pre-incubated with i-CDK9 for 15 min, followed by addition of kinase substrates (ELK for CDK1 and CDK2, RB for CDK4, and CDK7tide for CDK7 and CDK9). The mixture was incubated at room temperature for additional 4–5 hr. The reaction was stopped and read on Envision (PerkinElmer, Inc). Selectivity against a large panel of over 400 kinases was evaluated using the KINOMEscan platform (DiscoveRx, CA) employing a proprietary active site-directed competition binding assay ([Fabian et al., 2005]). The assay was conducted at two different concentrations of i-CDK9 (1 and 10 µM) by DiscoveRx.

AKT2 = target: T2, AKT2 (Homo sapiens, UniProt P31751); details: read-out: % Retention on Solid Support
T2 construct: purchased DiscoveRx KINOMEscan
Experimental: as §1, §2

ALK = target: T3, ALK (Homo sapiens, UniProt Q9UM73); details: read-out: % Retention on Solid Support
T3 construct: purchased DiscoveRx KINOMEscan
Experimental: as §1, §2

BMPR1B = target: T4, BMPR1B (Homo sapiens, UniProt O00238); details: read-out: % Retention on Solid Support
T4 construct: purchased DiscoveRx KINOMEscan
Experimental: as §1, §2

BTK = target: T5, BTK (Homo sapiens, UniProt Q06187)
T5 construct: purchased DiscoveRx KINOMEscan
Experimental: as §1, §2

CHEK1 = target: T6, CHEK1 (Homo sapiens, UniProt O14757)
T6 construct: purchased DiscoveRx KINOMEscan
Experimental: as §1, §2

CSNK1A1 = target: T7, CSNK1A1 (Homo sapiens, UniProt P48729); details: 1 µM i-CDK9; read-out: % Retention on Solid Support
T7 construct: purchased DiscoveRx KINOMEscan
Experimental: as §1, §2

[2] = target: T8, EGFR(L747-E749del, A750P) (Homo sapiens, UniProt P00533, A750P/DEL747-749)
T8 construct: purchased DiscoveRx KINOMEscan
Experimental: as §1, §2

EGFR(L858R) = target: T9, EGFR(L858R) (Homo sapiens, UniProt P00533, L858R)
T9 construct: purchased DiscoveRx KINOMEscan
Experimental: as §1, §2

EPHA2 = target: T10, EPHA2 (Homo sapiens, UniProt P29317); details: read-out: % Retention on Solid Support
T10 construct: purchased DiscoveRx KINOMEscan
Experimental: as §1, §2

EPHA6 = target: T11, EPHA6 (Homo sapiens, UniProt Q9UF33); details: read-out: % Retention on Solid Support
T11 construct: purchased DiscoveRx KINOMEscan
Experimental: as §1, §2

FER = target: T12, FER (Homo sapiens, UniProt P16591); details: read-out: % Retention on Solid Support
T12 construct: purchased DiscoveRx KINOMEscan
Experimental: as §1, §2

KIT(D816V) = target: T13, KIT(D816V) (Homo sapiens, UniProt P10721, D816V); details: read-out: % Retention on Solid Support
T13 construct: purchased DiscoveRx KINOMEscan
Experimental: as §1, §2

LATS1 = target: T14, LATS1 (Homo sapiens, UniProt O95835); details: read-out: % Retention on Solid Support
T14 construct: purchased DiscoveRx KINOMEscan
Experimental: as §1, §2

MEK1 = target: T15, MEK1 (Homo sapiens, UniProt Q02750); details: read-out: % Retention on Solid Support
T15 construct: purchased DiscoveRx KINOMEscan
Experimental: as §1, §2

MET(M1250T) = target: T16, MET(M1250T) (Homo sapiens, UniProt P08581, M1250T)
T16 construct: purchased DiscoveRx KINOMEscan
Experimental: as §1, §2

MST3 = target: T17, MST3 (Homo sapiens, UniProt Q9Y6E0)
T17 construct: purchased DiscoveRx KINOMEscan
Experimental: as §1, §2

NDR1 = target: T18, NDR1 (Homo sapiens, UniProt Q15208); details: read-out: % Retention on Solid Support
T18 construct: purchased DiscoveRx KINOMEscan
Experimental: as §1, §2

NDR2 = target: T19, NDR2 (Homo sapiens, UniProt Q9Y2H1); details: read-out: % Retention on Solid Support
T19 construct: purchased DiscoveRx KINOMEscan
Experimental: as §1, §2

NEK9 = target: T20, NEK9 (Homo sapiens, UniProt Q8TD19); details: read-out: % Retention on Solid Support
T20 construct: purchased DiscoveRx KINOMEscan
Experimental: as §1, §2

NIM1 = target: T21, NIM1 (Homo sapiens, UniProt Q8IY84); details: read-out: % Retention on Solid Support
T21 construct: purchased DiscoveRx KINOMEscan
Experimental: as §1, §2

PIK3CA = target: T22, PIK3CA (Homo sapiens, UniProt P42336); details: read-out: % Retention on Solid Support
T22 construct: purchased DiscoveRx KINOMEscan
Experimental: as §1, §2

RET(V804M) = target: T23, RET(V804M) (Homo sapiens, UniProt P07949, V804M); details: read-out: % Retention on Solid Support
T23 construct: purchased DiscoveRx KINOMEscan
Experimental: as §1, §2

RIPK4 = target: T24, RIPK4 (Homo sapiens, UniProt P57078); details: read-out: % Retention on Solid Support
T24 construct: purchased DiscoveRx KINOMEscan
Experimental: as §1, §2

SRC = target: T25, SRC (Homo sapiens, UniProt P12931); details: read-out: % Retention on Solid Support
T25 construct: purchased DiscoveRx KINOMEscan
Experimental: as §1, §2

TIE1 = target: T26, TIE1 (Homo sapiens, UniProt P35590); details: read-out: % Retention on Solid Support
T26 construct: purchased DiscoveRx KINOMEscan
Experimental: as §1, §2

TLK1 = target: T27, TLK1 (Homo sapiens, UniProt Q9UKI8); details: read-out: % Retention on Solid Support
T27 construct: purchased DiscoveRx KINOMEscan
Experimental: as §1, §2

TNIK = target: T28, TNIK (Homo sapiens, UniProt Q9UKE5); details: read-out: % Retention on Solid Support
T28 construct: purchased DiscoveRx KINOMEscan
Experimental: as §1, §2

YANK2 = target: T29, YANK2 (Homo sapiens, UniProt Q9NY57); details: read-out: % Retention on Solid Support
T29 construct: purchased DiscoveRx KINOMEscan
Experimental: as §1, §2

T21 sequence (Q8IY84 whole entry): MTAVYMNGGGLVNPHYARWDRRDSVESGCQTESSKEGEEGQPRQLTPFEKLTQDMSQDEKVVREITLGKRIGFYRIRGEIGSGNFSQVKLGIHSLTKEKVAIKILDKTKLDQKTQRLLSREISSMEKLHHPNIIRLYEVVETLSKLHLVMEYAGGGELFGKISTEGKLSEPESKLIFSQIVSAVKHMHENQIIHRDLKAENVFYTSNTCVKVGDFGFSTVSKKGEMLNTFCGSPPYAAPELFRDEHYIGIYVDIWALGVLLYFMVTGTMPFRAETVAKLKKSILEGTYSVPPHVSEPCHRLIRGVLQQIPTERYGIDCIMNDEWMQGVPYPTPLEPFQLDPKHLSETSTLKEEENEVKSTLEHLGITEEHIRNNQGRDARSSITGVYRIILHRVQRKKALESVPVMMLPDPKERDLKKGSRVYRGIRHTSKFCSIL
T6 sequence (O14757 whole entry): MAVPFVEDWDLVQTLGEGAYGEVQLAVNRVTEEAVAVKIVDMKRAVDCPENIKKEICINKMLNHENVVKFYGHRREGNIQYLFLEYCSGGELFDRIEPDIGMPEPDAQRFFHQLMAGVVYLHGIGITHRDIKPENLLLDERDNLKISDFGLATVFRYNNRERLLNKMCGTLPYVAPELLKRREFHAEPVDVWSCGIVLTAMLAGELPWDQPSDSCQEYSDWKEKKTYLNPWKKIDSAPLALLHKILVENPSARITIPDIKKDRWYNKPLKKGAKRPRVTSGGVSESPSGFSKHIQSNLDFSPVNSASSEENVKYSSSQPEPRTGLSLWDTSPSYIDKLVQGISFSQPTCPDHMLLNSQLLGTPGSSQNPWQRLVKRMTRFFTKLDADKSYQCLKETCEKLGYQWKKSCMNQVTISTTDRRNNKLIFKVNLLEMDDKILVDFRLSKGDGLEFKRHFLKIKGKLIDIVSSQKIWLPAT
T22 sequence (P42336 whole entry): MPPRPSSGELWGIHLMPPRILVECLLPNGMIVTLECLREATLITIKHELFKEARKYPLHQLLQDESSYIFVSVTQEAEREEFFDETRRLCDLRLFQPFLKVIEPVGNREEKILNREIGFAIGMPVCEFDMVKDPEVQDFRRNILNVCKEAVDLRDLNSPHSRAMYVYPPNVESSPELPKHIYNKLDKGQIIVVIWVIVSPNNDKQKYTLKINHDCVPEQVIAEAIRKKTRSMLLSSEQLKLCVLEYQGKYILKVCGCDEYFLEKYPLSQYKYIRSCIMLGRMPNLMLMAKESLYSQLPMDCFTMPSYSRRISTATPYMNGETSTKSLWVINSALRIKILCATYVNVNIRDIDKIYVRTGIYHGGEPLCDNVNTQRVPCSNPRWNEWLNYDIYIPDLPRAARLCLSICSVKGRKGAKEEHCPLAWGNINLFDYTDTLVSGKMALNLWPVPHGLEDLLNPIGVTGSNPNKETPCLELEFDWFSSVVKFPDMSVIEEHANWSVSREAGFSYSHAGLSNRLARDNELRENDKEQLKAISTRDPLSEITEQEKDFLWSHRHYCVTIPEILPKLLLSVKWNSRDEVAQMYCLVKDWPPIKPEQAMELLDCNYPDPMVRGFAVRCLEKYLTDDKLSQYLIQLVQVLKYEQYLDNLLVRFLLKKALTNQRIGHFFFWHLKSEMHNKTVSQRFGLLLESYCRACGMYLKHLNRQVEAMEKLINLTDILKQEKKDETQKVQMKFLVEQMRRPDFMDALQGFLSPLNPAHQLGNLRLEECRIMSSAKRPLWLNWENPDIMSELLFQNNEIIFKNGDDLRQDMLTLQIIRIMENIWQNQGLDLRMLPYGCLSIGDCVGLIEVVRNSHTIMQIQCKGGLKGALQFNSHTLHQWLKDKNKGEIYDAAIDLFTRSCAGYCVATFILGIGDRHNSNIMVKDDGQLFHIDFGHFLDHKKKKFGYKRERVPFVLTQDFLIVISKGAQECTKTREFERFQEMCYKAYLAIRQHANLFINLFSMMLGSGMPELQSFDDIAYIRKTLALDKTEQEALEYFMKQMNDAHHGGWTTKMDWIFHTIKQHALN
T14 sequence (O95835 whole entry): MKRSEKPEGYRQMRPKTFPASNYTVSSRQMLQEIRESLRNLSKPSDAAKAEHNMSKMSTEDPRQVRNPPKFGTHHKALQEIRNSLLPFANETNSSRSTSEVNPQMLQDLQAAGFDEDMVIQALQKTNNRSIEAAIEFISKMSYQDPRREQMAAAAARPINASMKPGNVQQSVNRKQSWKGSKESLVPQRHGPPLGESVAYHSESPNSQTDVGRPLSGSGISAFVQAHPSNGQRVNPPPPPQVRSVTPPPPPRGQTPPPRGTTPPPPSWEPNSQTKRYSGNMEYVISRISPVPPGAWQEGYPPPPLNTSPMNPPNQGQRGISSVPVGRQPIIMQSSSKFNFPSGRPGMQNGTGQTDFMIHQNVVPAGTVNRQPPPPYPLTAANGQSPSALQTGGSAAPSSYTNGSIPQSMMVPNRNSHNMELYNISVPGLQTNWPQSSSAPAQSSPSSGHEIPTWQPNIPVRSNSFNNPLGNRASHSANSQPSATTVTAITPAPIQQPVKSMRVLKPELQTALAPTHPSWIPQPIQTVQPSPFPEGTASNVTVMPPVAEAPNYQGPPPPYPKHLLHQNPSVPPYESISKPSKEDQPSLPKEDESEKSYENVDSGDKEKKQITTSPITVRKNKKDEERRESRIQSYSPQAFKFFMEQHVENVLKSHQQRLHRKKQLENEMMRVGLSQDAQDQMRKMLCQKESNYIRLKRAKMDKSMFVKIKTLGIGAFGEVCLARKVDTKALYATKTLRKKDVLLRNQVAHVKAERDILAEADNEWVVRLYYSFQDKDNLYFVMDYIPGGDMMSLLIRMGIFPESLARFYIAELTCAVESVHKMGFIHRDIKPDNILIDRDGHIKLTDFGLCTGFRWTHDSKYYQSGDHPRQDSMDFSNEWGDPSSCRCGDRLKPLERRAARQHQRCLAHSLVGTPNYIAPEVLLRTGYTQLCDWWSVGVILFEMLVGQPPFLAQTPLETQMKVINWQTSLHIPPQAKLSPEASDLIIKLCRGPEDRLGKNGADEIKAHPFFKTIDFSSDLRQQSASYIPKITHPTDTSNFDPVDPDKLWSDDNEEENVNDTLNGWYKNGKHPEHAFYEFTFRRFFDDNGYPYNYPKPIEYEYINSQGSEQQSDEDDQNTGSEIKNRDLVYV
T10 sequence (P29317 24-976): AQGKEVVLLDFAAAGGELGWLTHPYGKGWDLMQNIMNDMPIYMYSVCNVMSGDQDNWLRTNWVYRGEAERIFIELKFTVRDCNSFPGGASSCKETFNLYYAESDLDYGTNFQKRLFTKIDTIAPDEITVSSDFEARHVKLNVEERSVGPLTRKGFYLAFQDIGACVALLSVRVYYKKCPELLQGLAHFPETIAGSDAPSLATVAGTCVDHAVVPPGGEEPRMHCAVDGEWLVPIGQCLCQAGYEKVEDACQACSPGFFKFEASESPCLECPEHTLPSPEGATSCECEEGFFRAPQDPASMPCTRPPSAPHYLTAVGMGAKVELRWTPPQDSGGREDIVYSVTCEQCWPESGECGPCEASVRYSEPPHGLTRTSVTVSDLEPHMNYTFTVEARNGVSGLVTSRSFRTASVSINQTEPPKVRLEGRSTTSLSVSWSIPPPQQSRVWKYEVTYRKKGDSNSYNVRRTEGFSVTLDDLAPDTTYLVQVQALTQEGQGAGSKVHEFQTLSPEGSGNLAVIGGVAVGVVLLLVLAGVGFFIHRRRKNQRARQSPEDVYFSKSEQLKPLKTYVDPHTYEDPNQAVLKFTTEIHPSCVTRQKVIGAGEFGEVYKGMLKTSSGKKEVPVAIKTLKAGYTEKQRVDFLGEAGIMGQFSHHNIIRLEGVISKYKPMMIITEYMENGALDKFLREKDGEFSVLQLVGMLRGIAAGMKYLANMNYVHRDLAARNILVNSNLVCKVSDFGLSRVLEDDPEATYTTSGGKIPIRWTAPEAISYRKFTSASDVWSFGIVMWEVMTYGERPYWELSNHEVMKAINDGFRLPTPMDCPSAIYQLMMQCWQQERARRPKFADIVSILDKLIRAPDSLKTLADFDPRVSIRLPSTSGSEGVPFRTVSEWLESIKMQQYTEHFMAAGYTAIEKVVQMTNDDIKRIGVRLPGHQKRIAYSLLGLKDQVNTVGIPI
T27 sequence (Q9UKI8 whole entry): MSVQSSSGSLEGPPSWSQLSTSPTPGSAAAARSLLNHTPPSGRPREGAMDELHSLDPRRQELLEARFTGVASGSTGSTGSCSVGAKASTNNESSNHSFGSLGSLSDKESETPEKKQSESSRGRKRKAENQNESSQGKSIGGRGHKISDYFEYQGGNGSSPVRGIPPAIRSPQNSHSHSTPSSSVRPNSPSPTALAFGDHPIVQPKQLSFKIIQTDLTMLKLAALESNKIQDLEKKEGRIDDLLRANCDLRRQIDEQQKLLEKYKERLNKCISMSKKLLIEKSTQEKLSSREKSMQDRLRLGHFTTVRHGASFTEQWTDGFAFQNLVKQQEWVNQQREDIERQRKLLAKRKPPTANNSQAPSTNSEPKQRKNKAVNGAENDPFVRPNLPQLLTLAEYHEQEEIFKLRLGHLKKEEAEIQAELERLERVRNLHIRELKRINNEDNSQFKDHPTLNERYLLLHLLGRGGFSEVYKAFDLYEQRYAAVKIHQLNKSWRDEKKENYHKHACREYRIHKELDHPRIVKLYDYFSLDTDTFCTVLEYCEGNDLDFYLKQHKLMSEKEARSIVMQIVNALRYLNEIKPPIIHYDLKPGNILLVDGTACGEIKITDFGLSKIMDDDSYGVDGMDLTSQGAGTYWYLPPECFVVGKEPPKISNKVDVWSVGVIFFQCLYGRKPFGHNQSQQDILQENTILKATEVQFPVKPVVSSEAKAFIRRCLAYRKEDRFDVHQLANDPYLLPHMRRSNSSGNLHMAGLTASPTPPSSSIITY

N[C@H]1CC[C@H](Nc2cc(-c3cccc(NCc4cccc(F)c4)n3)c(Cl)cn2)CC1 [i-CDK9, N2′-(trans-4-aminocyclohexyl)-5′-chloro-N6-(3-fluorobenzyl)-2,4′-bipyridine-2′,6-diamine]
remaining binding at 1 µM ([1]; 1 µM i-CDK9): 84%
remaining binding at 10 µM ([1]; 10 µM i-CDK9): 100%
remaining binding at 1 µM (AKT2; 1 µM i-CDK9): 89%
remaining binding at 10 µM (AKT2; 10 µM i-CDK9): 77%
remaining binding at 1 µM (ALK; 1 µM i-CDK9): 86%
remaining binding at 10 µM (ALK; 10 µM i-CDK9): 70%
remaining binding at 1 µM (BMPR1B; 1 µM i-CDK9): 100%
remaining binding at 10 µM (BMPR1B; 10 µM i-CDK9): 89%
% Retention on Solid Support (BTK; 1 µM i-CDK9): 100%
% Retention on Solid Support (BTK; 10 µM i-CDK9): 100%
% Retention on Solid Support (CHEK1; 1 µM i-CDK9): 100%
% Retention on Solid Support (CHEK1; 10 µM i-CDK9): 82%
remaining binding at 1 µM (CSNK1A1): 69%
% Retention on Solid Support ([2]; 1 µM i-CDK9): 46%
% Retention on Solid Support ([2]; 10 µM i-CDK9): 85%
% Retention on Solid Support (EGFR(L858R); 1 µM i-CDK9): 35%
% Retention on Solid Support (EGFR(L858R); 10 µM i-CDK9): 100%
remaining binding at 1 µM (EPHA2; 1 µM i-CDK9): 100%
remaining binding at 10 µM (EPHA2; 10 µM i-CDK9): 100%
remaining binding at 1 µM (EPHA6; 1 µM i-CDK9): 100%
remaining binding at 10 µM (EPHA6; 10 µM i-CDK9): 91%
remaining binding at 1 µM (FER; 1 µM i-CDK9): 56%
remaining binding at 10 µM (FER; 10 µM i-CDK9): 100%
remaining binding at 1 µM (KIT(D816V); 1 µM i-CDK9): 100%
remaining binding at 10 µM (KIT(D816V); 10 µM i-CDK9): 100%
remaining binding at 1 µM (LATS1; 1 µM i-CDK9): 100%
remaining binding at 10 µM (LATS1; 10 µM i-CDK9): 100%
remaining binding at 1 µM (MEK1; 1 µM i-CDK9): 100%
remaining binding at 10 µM (MEK1; 10 µM i-CDK9): 100%
% Retention on Solid Support (MET(M1250T); 1 µM i-CDK9): 86%
% Retention on Solid Support (MET(M1250T); 10 µM i-CDK9): 100%
% Retention on Solid Support (MST3; 1 µM i-CDK9): 83%
% Retention on Solid Support (MST3; 10 µM i-CDK9): 90%
remaining binding at 1 µM (NDR1; 1 µM i-CDK9): 100%
remaining binding at 10 µM (NDR1; 10 µM i-CDK9): 88%
remaining binding at 1 µM (NDR2; 1 µM i-CDK9): 95%
remaining binding at 10 µM (NDR2; 10 µM i-CDK9): 100%
remaining binding at 1 µM (NEK9; 1 µM i-CDK9): 100%
remaining binding at 10 µM (NEK9; 10 µM i-CDK9): 100%
remaining binding at 1 µM (NIM1; 1 µM i-CDK9): 100%
remaining binding at 10 µM (NIM1; 10 µM i-CDK9): 100%
remaining binding at 1 µM (PIK3CA; 1 µM i-CDK9): 100%
remaining binding at 10 µM (PIK3CA; 10 µM i-CDK9): 100%
remaining binding at 1 µM (RET(V804M); 1 µM i-CDK9): 74%
remaining binding at 10 µM (RET(V804M); 10 µM i-CDK9): 74%
remaining binding at 1 µM (RIPK4; 1 µM i-CDK9): 53%
remaining binding at 10 µM (RIPK4; 10 µM i-CDK9): 100%
remaining binding at 1 µM (SRC; 1 µM i-CDK9): 87%
remaining binding at 10 µM (SRC; 10 µM i-CDK9): 100%
remaining binding at 1 µM (TIE1; 1 µM i-CDK9): 85%
remaining binding at 10 µM (TIE1; 10 µM i-CDK9): 100%
remaining binding at 1 µM (TLK1; 1 µM i-CDK9): 62%
remaining binding at 10 µM (TLK1; 10 µM i-CDK9): 95%
remaining binding at 1 µM (TNIK; 1 µM i-CDK9): 72%
remaining binding at 10 µM (TNIK; 10 µM i-CDK9): 36%
remaining binding at 1 µM (YANK2; 1 µM i-CDK9): 90%
remaining binding at 10 µM (YANK2; 10 µM i-CDK9): 100%
